Literature values, collected in patent publication US5543414A, “Achiral amino acid acyl esters of ganciclovir and its derivatives” (priority 1994, dated 1996).
Structures can show the parent of a compound that is named as a salt. Where two headings read alike, the source gives them in different places. Each block holds one molecule with its values, some of them ahead of it.

Tests used:
[1] = tested on: herpes simplex virus type 1 and type 2 strains; details: primary rabbit kidney cell cultures
[2] = in vivo
[3] = not given; remark: listed apart in the source
[4] = not given; remark: listed apart in the source
[5] = tested on: epithelial and stromal herpes simplex keratitis and associated iritis; details: glycine ester: 1% eye drop formulation, rabbits; acyclovir: ointment
[6] = not given; remark: listed apart in the source
[7] = oral administration
[8] = tested on: viruses of the herpes family; details: e.g. herpes simplex, cytomegalovirus
[9] = not given; remark: listed apart in the source

SMILES: Nc1nc2c(ncn2COCCOC(=O)CCC(=O)O)c(=O)[nH]1 [sodium salt of the succinyl ester]
activity against herpes simplex virus type 1 and type 2 compared with acyclovir [1]: almost as active as acyclovir itself

SMILES: CC[C@H](C)[C@H](N)C(=O)OCCOCn1cnc2c(=O)[nH]c(N)nc21 [L-isoleucyl]
amounts of the parent drug in the urine compared with acyclovir (rat, in vivo): greater amounts of the parent drug in the urine than acyclovir itself

SMILES: Nc1ncc2ncn(COCCO)c2n1 [6-deoxy-acyclovir]
conversion to parent drug [2]: readily converted in vivo by the action of enzymes
absorption and plasma levels of the parent drugs ([3]; oral administration, rats): efficient absorption from the gastro-intestinal tract and high plasma levels of the parent drugs

SMILES: CC(C)[C@H](N)C(=O)OCCOCn1cnc2c(=O)nc(N)[nH]c21 [valine ester of acyclovir]
absorption from the gut compared with other esters and acyclovir ([4]; in vivo, po): large increase in absorption from the gut after oral administration

SMILES: NCC(=O)OCCOCn1cnc2c(=O)[nH]c(N)nc21 [glycyl ester of acyclovir]
efficacy in topical treatment of herpes simplex keratitis and iritis [5]: efficacious in the topical treatment of epithelial and stromal herpes simplex keratitis and associated iritis
amounts of the parent drug in the urine compared with acyclovir (rats): greater amounts of the parent drug in the urine than acyclovir itself
solubility greater than the solubility of acyclovir itself [6]: about 30 fold

SMILES: Nc1ncc2ncn(COC(CO)CO)c2n1 [6-deoxy-ganciclovir]
conversion to parent drug [2]: readily converted in vivo by the action of enzymes
absorption and plasma levels of the parent drugs ([3]; rat, in vivo, po): efficient absorption from the gastro-intestinal tract and high plasma levels of the parent drugs

more bioavailable than ganciclovir itself [7]: about 42%
SMILES: CCC(=O)OCC(COC(=O)CC)OCn1cnc2c(=O)[nH]c(N)nc21 [dipropionate ester]

SMILES: CC[C@H](N)C(=O)OCCOCn1cnc2c(=O)[nH]c(N)nc21
amounts of the parent drug in the urine compared with acyclovir (rat, in vivo): greater amounts of the parent drug in the urine than acyclovir itself

SMILES: CCC(C)C(N)C(=O)OCCOCn1cnc2c(=O)[nH]c(N)nc21 (racemic) [DL-isoleucyl]
amounts of the parent drug in the urine compared with acyclovir (rats): greater amounts of the parent drug in the urine than acyclovir itself

SMILES: NCCC(=O)OCCOCn1cnc2c(=O)[nH]c(N)nc21 [hydrochloride salt of the β-alanyl ester]
activity against herpes simplex virus type 1 and type 2 compared with acyclovir [1]: almost as active as acyclovir itself

SMILES: NCC(=O)OCCOCn1cnc2c(=O)[nH]c(N)nc21 [hydrochloride salt of the glycyl ester]
activity against herpes simplex virus type 1 and type 2 compared with acyclovir [1]: almost as active as acyclovir itself

SMILES: CC(C)[C@H](N)C(=O)OCCOCn1cnc2c(=O)[nH]c(N)nc21 [L-valyl ester of acyclovir]
amounts of the parent drug in the urine compared with acyclovir (rats): greater amounts of the parent drug in the urine than acyclovir itself
ranking as prodrug of acyclovir (rats): the best prodrug of the esters investigated

urinary recovery of acyclovir (rat, in vivo, po): 19%
water solubility [9]: limited solubility in water
SMILES: Nc1nc2c(ncn2COCCO)c(=O)[nH]1 [acyclovir, 2-(2-amino-1,6-dihydro-6-oxo-1,6-dihydro-purin-9-yl)methoxy-ethanol]
efficacy in topical treatment of herpes simplex keratitis and iritis [5]: hardly effective in stromal disease or iritis
antiviral activity [8]: good activity against herpes viruses such as herpes simplex

SMILES: CC(C)C(N)C(=O)OCCOCn1cnc2c(=O)nc(N)[nH]c21 (racemic) [D,L-valyl]
amounts of the parent drug in the urine compared with acyclovir (rat, in vivo): greater amounts of the parent drug in the urine than acyclovir itself

SMILES: CSCC[C@H](N)C(=O)OCCOCn1cnc2c(=O)[nH]c(N)nc21 [L-methionyl]
amounts of the parent drug in the urine compared with acyclovir (rat, in vivo): greater amounts of the parent drug in the urine than acyclovir itself

SMILES: CC(N)C(=O)OCCOCn1cnc2c(=O)[nH]c(N)nc21 (centres unmarked) [hydrochloride salt of the alanyl ester]
activity against herpes simplex virus type 1 and type 2 compared with acyclovir [1]: almost as active as acyclovir itself

SMILES: CC(N)C(=O)OCCOCn1cnc2c(=O)[nH]c(N)nc21 (racemic) [D,L-alanyl]
amounts of the parent drug in the urine compared with acyclovir (rat, in vivo): greater amounts of the parent drug in the urine than acyclovir itself

SMILES: C[C@H](N)C(=O)OCCOCn1cnc2c(=O)[nH]c(N)nc21 [L-alanyl]
amounts of the parent drug in the urine compared with acyclovir (rat, in vivo): greater amounts of the parent drug in the urine than acyclovir itself

SMILES: Nc1nc2c(ncn2COCCOC(=O)[C@@H]2CCCN2)c(=O)[nH]1 [L-prolyl ester]
amounts of the parent drug in the urine compared with acyclovir (rat, in vivo): greater amounts of the parent drug in the urine than acyclovir itself

SMILES: CCC(C)C(N)C(=O)OCCOCn1cnc2c(=O)[nH]c(N)nc21 (centres unmarked) [isoleucine ester of acyclovir]
absorption from the gut compared with other esters and acyclovir ([4]; oral administration, preferably in the L-form): large increase in absorption from the gut after oral administration

SMILES: Nc1nc2c(ncn2COC(CO)CO)c(=O)[nH]1 [ganciclovir, 9-[(2-hydroxy-1-hydroxymethyl-ethoxy)methyl]-guanine]
antiviral activity [8]: highly efficacious against viruses of the herpes family, for example, against herpes simplex and cytomegalovirus
